Structures can show the parent of a compound that is named as a salt.
Tested on: women suffering from Alzheimer's disease
Assay: mini-mental state examination (MMSE) in patients with Alzheimer's disease
Assay type: in vivo
Experimental: To two women suffering from Alzheimer's disease (one was […] and the other was […]), donepezil hydrochloride (Aricept®) had been administered in a dose of 5 mg/day for 12 months and 9 months, respectively. […] At the beginning time of the experiment (0 month), the administration of cilostazol in a dose of 100 mg/day started as the combination with donepezil hydrochloride.

COc1cc2c(cc1OC)C(=O)C(CC1CCN(Cc3ccccc3)CC1)C2 (stereo not drawn) [donepezil hydrochloride]
MMSE Score (Patient 1, at start of cilostazol, donepezil hydrochloride 5 mg/day alone until then): 13 | MMSE Score (Patient 1, −3 Ms, donepezil hydrochloride 5 mg/day alone): 16 | MMSE Score (Patient 1, −6 Ms, donepezil hydrochloride 5 mg/day alone): 17 | MMSE Score (Patient 1, −9 Ms, donepezil hydrochloride 5 mg/day alone): 17 | MMSE Score (Patient 2, at start of cilostazol, donepezil hydrochloride 5 mg/day alone until then): 6 | MMSE Score (Patient 2, −3 Ms, donepezil hydrochloride 5 mg/day alone): 10 | MMSE Score (Patient 2, −6 Ms, donepezil hydrochloride 5 mg/day alone): 12 | MMSE Score (Patient 2, −9 Ms, donepezil hydrochloride 5 mg/day alone): 13 | MMSE Score (Patient 2, −12 Ms, donepezil hydrochloride 5 mg/day alone): 16
